Results: patent US11849727B2, “Synergistic formulations for control and repellency of biting arthropods” (Bedoukian Research, Inc., priority 2013, dated 2023)

System: Aedes aegypti
Test: Arm in Cage testing on human subjects (modified WHO - Nigel Hill protocol), dose response
Format: in vivo
Details: individual component, LDP Line dose response curve
Experimental: A Modified WHO-[…] protocol was used for Dose Response curve generation. Three concurrent repetitions were conducted with 4 subjects (2 male, 2 female). Approximately 60 non blood-fed, female Aedes aegypti mosquitoes were placed in a 12''×12''×12'' (28316.85 cm^3) plexi and screen cage. […] Arms were inserted into the first cage for 30 seconds, with number of landings (with intent to bite) recorded at the end of the time interval. The same procedure was used for the 2nd and 3rd cage in succession. Control arm was inserted first, followed by the opposite arm treated with ethanol only (as a treatment control). The 'treatment arm' is then treated with dose 1 and inserted, then dose 2, dose 3, and so on. After complete protection was achieved, control arm was reinserted to verify continued activity. Percent repellency was calculated by utilizing the formula [{(C-T)/C}*100]. Where C=the number of mosquitoes landing with intent to bite on the ethanol only treated arm, and T=the number of mosquitoes landing with intent to bite on the 'repellent' treated arm. LDP Line® software (Bakr, E 2007) was used to determine ED50 (effective dose to repel 50%) and compare materials. […] Significance was determined by the use of 95% confidence intervals. […]

CCN(CC)C(=O)c1cccc(C)c1 [DEET, N,N-Diethyl-m-toluamide]
percent dose required to generate an ED25 (25% repellency): 0.035%
